Results as given in ChEMBL document CHEMBL4610028, “Variegatic acid from the edible mushroom Tylopilus ballouii inhibits TNF-α production and PKCβ1 activity in leukemia cells” (Bioorg Med Chem Lett, 2020).

How the values were obtained:
[1] = target: T1, Protein kinase C beta type (Rattus norvegicus, UniProt P68403); assay: Inhibition of PKCbeta in rat RBL2H3 cells assessed as inhibition of ionomycin-stimulated TNFalpha release preincubated for 15 mins followed by ionomycin stimulation and measured after 3 hrs by ELISA; assay type: cell-based, RBL-2H3
[2] = target: T1, Protein kinase C beta type; assay: Inhibition of PKCbeta in rat RBL2H3 cells assessed as inhibition of ionomycin-stimulated beta-hexosaminidase release preincubated for 15 mins followed by ionomycin stimulation and measured after 3 hrs by 4-nitropheny1-2-acetamide-2-deoxy-beta-glucopyranoside substrate based colorimetric method; assay type: cell-based, RBL-2H3
[3] = target: T1, Protein kinase C beta type; assay: Inhibition of PKCbeta in rat RBL2H3 cells assessed as inhibition of anti-DNP IgE-stimulated TNFalpha release preincubated for 15 mins followed by mouse anti-DNP IgE stimulation and measured after 3 hrs by ELISA; assay type: cell-based, RBL-2H3
[4] = target: Protein kinase C beta type (Homo sapiens, UniProt P05771); assay: Inhibition of recombinant full-length N-temrinal GST-tagged human PKC beta1 expressed in baculovirus infected Sf9 cells using TMB as substrate incubated for 4.5 hrs by colorimetric analysis

T1 sequence (P68403 whole entry): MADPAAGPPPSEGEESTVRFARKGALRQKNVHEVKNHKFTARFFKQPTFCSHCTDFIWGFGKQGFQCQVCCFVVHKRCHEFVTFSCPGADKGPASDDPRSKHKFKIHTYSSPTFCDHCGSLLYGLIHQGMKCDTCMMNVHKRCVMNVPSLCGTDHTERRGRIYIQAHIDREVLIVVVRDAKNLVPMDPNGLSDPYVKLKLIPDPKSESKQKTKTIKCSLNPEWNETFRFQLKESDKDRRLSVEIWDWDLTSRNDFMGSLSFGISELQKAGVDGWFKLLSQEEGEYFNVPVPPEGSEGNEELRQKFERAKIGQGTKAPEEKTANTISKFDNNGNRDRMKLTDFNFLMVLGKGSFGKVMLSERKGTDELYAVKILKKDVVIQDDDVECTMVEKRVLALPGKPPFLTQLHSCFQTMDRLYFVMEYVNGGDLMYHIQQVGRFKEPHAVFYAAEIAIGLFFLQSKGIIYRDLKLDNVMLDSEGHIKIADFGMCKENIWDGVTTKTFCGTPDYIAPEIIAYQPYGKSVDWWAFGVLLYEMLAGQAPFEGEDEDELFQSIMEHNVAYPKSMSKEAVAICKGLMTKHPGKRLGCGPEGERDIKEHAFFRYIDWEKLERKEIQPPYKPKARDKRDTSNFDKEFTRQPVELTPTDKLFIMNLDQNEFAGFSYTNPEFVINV

IC50 [1]: 20.1 µM
IC50 [2]: 22.2 µM
IC50 [3]: 16.8 µM
IC50 [4]: 36.2 µM
inhibition [4]: Dose-dependent effect
Structure (SMILES): O=C1O/C(=C(/C(=O)O)c2ccc(O)c(O)c2)C(O)=C1c1ccc(O)c(O)c1
